The OligoGym collection
These antisense oligonucleotides have a phosphorothioate backbone; sugars and methylation of C are not fully specified.

molecular target: SUMO1; settings: ASO
Also: test concentration or dose not given here.

Row | Sequence | remaining target (mRNA or protein) (fraction of control)
1 | TTCCTCCATTCCCAGTTC | ≥ 1
2 | TGAATCTCACTGCTATCC | ≥ 1
3 | ATGATTCTTTGAGTTTCT | 0.59
4 | TCCGTTTTGAACACCACA | 0.29
5 | ACCACATTACAAAAGAAC | ≥ 1
6 | CTCAGTTGAAGGTTTTGC | ≥ 1
7 | CCACAGTTCAGTTCTCTG | 0.34
8 | TCACCTTATCTGTCATCT | ≥ 1
9 | ACATGATGACGGTGGCTT | ≥ 1
10 | ATAATGAATAATGAGCAC | ≥ 1
11 | GGGTCTCCGCACAGCAGC | ≥ 1
12 | TTCATTGGAACACCCTGT | 0.32
13 | AGGATTGAGGGAAAAGAA | ≥ 1
14 | ATTCTCTGACCCTCAAAG | ≥ 1
15 | ACTTCCATCTCCCACTGA | 0.47
16 | ACTGCTATCCTGTCCAAT | 0.67
17 | CCCCTTCCCGACAGCACA | 0.92
18 | CTTTGGAGTTAGTCATTA | ≥ 1
19 | TCCATCTCCCACTGAAAG | 0.53
20 | CAGATGTTTCAAAGAGAT | ≥ 1

Row | Sequence | remaining target (mRNA or protein) (fraction of control)
21 | GATAAACTTCAATCACAT | ≥ 1
22 | ACAATGAAAACAAACAAT | ≥ 1
23 | AGATGTGTTGTCATTTTC | ≥ 1
24 | CCTCAAAGAGAAACCTGA | ≥ 1
25 | ATTCACCTTCCTTCTTAT | 0.55
26 | AGCAGTGTTCTGTTGTAT | ≥ 1
27 | AACTTCCGCTACGCCTCG | ≥ 1
28 | GCAGTAACTTCCGCTACG | ≥ 1
29 | TTCTTTGAGTTTCTTGAG | ≥ 1
30 | CCAGGAGTGAAGTAATCA | ≥ 1
31 | CAGTATGATTCTTTGAGT | 0.53
32 | GGGTTTACAAATCCTTCC | ≥ 1
33 | AAACAATAATGAATAATG | ≥ 1
34 | GTCTTTGACAGTATGATT | ≥ 1
35 | TTCTTTTGGAGTATGATT | ≥ 1
36 | GGCACTTCAGTAACTTTC | 0.79
37 | AATTTCCAGTATTTATGC | 0.45
38 | GTTTCTTGAGATGTGTTG | 0.86
39 | CTGTCCAATGACTTTGAG | ≥ 1
40 | AAATCCTTCCCCTTCCCG | ≥ 1

molecular target: EGR1; settings: ASO

Row | Sequence | remaining target (mRNA or protein) (fraction of control)
41 | GAAAATGTCAGTGTTCGG | ≥ 1
42 | ATGCCTCTTGCGTTCATC | ≥ 1
43 | GGGCCTGGCCGGGTTACA | 0.4
44 | AGATGGTGCTGAGGACGA | ≥ 1
45 | GTGGGCAGAAAGGATTGT | 0.8
46 | CAAAAGGCACCAAGACGT | ≥ 1
47 | GATGGCGGCGGCGGCTCC | ≥ 1
48 | TCTTTCCCCTTTCCCTTT | 0.93
49 | TATCCAAAATCCATGCAA | ≥ 1
50 | CAGCAGCATCATCTCCTC | ≥ 1
51 | ATGTCCGAAAGCCCTGTG | ≥ 1
52 | TAATACAATAGAATATGC | ≥ 1
53 | CCACTGGGCAAGCGTAAG | ≥ 1
54 | GGTCCTGGGAGCCCGACT | ≥ 1

molecular target: REL; settings: ASO

Row | Sequence | remaining target (mRNA or protein) (fraction of control)
55 | CACTAACTTCCTGGTCAG | 0.48
56 | GAATGGTGGGATACCTTG | 0.43
57 | AAACAGTAGTATTGGAAT | ≥ 1
58 | ATGCTGCCTGCTGATCGC | 0.41
59 | ACTGACTATCTTGAACAA | ≥ 1
60 | AATCCACTTGAGATGGGC | 0.74
61 | CTCCTCCTTCTTCCCGCC | 0.78
62 | CCATATAAATCTGCTGAT | ≥ 1
63 | GAGGTTTATATGGGTCAT | ≥ 1
64 | ATTCTCAGTCAGTATTAT | 0.75
65 | CACAGTCTCACCACATTG | 0.39
66 | CGAGACAACAGGAGGAAG | 0.8
67 | TTTGCTTTATTGCCGTAA | ≥ 1
68 | ACACGACAAATCCTTAAT | ≥ 1
69 | TCATCGGCATTGTTGTAA | 0.54
70 | ACTAATGTAATTCTCACT | ≥ 1
71 | TCATTTATCATGCTGTTA | ≥ 1
72 | CTTTTCCATAATAGTTCA | 0.85
73 | AGTCAGGAGGCCGAGGGA | ≥ 1
74 | TTTCTACGTGATCCTGGC | 0.85

Row | Sequence | remaining target (mRNA or protein) (fraction of control)
75 | GTCTCAAGTCTCTTGGGT | 0.41
76 | CTTCCCGCAGGCAGCTCC | 0.56
77 | TCATATTCACAGAACAAT | ≥ 1
78 | TCTTTCTGAACTTTGTCA | 0.98
79 | CGGTTGTTGTCTGTGCTG | 0.38
80 | CAAAATGCTGCATCTATA | 0.79
81 | GAAGTCTTGGATTATCAG | ≥ 1
82 | TTACTGTTACGGGTTCTG | 0.64
83 | AATGGATTGATTCCTGCC | ≥ 1
84 | CACAATTCTTGTTTACAC | 0.84
85 | TGATCCACCCGCCTTGGC | ≥ 1
86 | TCCCAAAGTGCTAGGATT | 0.7
87 | ATGCCTTTTGCTTCCCAA | 0.14
88 | TGTAATCCCAGCACTTTG | 0.73
89 | TTGTATTCGCTATGTCCA | 0.53
90 | GTCTGCGTTCTTGTCCAA | ≥ 1
91 | GTATTGCCTGAGCGTGGG | 0.57
92 | ATTTGTATCTAAAACGCA | ≥ 1
93 | TCTCTCACAACTGCATCA | 0.58
94 | ATACGCACCGGAGGCCAT | ≥ 1

molecular target: IL15; settings: ASO

Row | Sequence | remaining target (mRNA or protein) (fraction of control)
95 | ACACCTACCTTTTAATAA | ≥ 1
96 | AGTGAAATAACTTGTAAC | ≥ 1
97 | CTAGGGTAAAGTATGATC | ≥ 1
98 | ATATTACTCAATGACATT | ≥ 1
99 | ACTCTAGGCCCATAGCAA | 0.58
100 | TTCTCATTACTCAAAGCC | 0.87
101 | GCCTCCTACAATACAATC | ≥ 1
102 | ATTAGAAGACAAACTGTT | ≥ 1
103 | TACATTCACCCAGTTGGC | 0.24
104 | CCATCCACGATGCCTCCT | 0.5
105 | AGCTGGCTATGGCAAGGG | 0.35
106 | GCCCTGCACTGAAACAGC | 0.39
107 | CCAATACCATGAAGGCAT | 0.25
108 | AGACATGAATGCCAGCTT | 0.26
109 | TTAGTAGCATTTAGGTAA | ≥ 1
110 | CTTTTAATAAGCACTCTA | ≥ 1
111 | CTGAACTGAGAGTCAGAT | 0.27
112 | TACTTCTCAAATGTGGTT | ≥ 1
113 | TTAGCTGCATCCCAAAAT | 0.48
114 | AAAAGAAAGGGAGGGAAT | ≥ 1

Row | Sequence | remaining target (mRNA or protein) (fraction of control)
115 | TCATCTTCTTGACAGAAA | ≥ 1
116 | GTATTGAAGAAGAGCTGG | ≥ 1
117 | TTTAGAAGTAAACACAAG | ≥ 1
118 | CCAGCTTCAGTTAGAAAA | ≥ 1
119 | AGGCATTAGTAGAGTAAA | 0.92
120 | GTACATGACAGCCAGGAT | 0.35
121 | CTGTTTTAGGAAGCCCTG | 0.58
122 | ATAATGGTATGGAGGAAG | 0.6
123 | TTCAATAATAAATTAAAA | ≥ 1
124 | ATGCATCACCTTTAATCT | 0.65
125 | CATAGCAAGTACATGACA | 0.46
126 | ACTGGGTATATTAGCTGC | 0.58
127 | TCACATTCTTTGCATCCA | 0.31
128 | AAGAAGTGTTGATGAACA | 0.83
129 | TTGTTATGTCTAAGCAGC | 0.47
130 | TTTAATCTTTACAATAAT | ≥ 1
131 | GTTAGGTGCTTTGGGCCA | 0.13
132 | GGGTGAACATCACTTTCC | 0.43
133 | ATTTAGGTAAGCTACTCT | 0.75
134 | ACACAAGTAGCACTGGAT | 0.43

molecular target: IKBKB; settings: ASO

Row | Sequence | remaining target (mRNA or protein) (fraction of control)
135 | GAGGAGATTCATCATGGC | 0.97
136 | CTTCGCTAACAACAATGT | ≥ 1
137 | CTTCTGCTTGCAAACCAC | 0.82
138 | TTTCACTTCGTTCTCCCG | 0.33
139 | GCCAGGACACTGTTAAGA | 0.43
140 | GCTTTAGATCCCGATGGA | 0.46
